# Source: patent US20050032873A1, “3-Amino chroman and 2-amino tetralin derivatives” (Wyeth, priority 2003, published 2005)
# Like-named read-outs stand apart in the source and are kept apart here.
# Assays:
# serotonin transporter = target: T1, serotonin transporter (Rattus norvegicus, UniProt P31652); experiment: 5-HT transporter affinity: displacement of 3H-paroxetine from male rat cortical membranes; assay type: binding; conditions: displacement of 3H-paroxetine; male rat cortical membranes; read-out: 5-HT Transporter Affinity Ki
# T1 construct: displace ^3H-paroxetine from male rat cortical membranes; from tissue; host or cells: male rat cortical membranes
# [1] = target: T2, cloned human 5-HT1A receptors (Homo sapiens, UniProt P08908); experiment: 35S-GTPγS binding assay, 5-HT1A function; assay type: biochemical; conditions: for EC50: agonist potency; for IC50: antagonist potency, reversal of 8-OH-DPAT, read-out: 5-HT1A Function GTPγS IC50
# T2 construct: expressed in transfected cells
# T2 sequence (P08908 1-422): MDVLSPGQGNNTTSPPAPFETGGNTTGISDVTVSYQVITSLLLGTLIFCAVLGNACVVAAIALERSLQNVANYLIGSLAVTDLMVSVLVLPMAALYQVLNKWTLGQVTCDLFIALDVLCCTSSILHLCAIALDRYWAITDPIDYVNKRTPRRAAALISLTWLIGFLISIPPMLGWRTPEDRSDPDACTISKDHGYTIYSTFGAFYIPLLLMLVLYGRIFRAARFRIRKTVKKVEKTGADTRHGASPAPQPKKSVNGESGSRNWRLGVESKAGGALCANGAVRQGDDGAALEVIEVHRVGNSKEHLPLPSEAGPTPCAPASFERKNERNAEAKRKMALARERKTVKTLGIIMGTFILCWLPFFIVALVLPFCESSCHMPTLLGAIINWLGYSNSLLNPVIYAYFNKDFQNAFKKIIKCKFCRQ
# 5-HT1A receptor [2] = target: T3, 5-HT1A receptor (Homo sapiens, UniProt P08908); experiment: cAMP accumulation assay, 5-HT1A function; assay type: cell-based; conditions: for EC50: cells marked EC50 (agonist); for Emax / 5-HT1A Function cAMP (Emax): in brackets after EC50 or IC50; for Emax: read-out: 5-HT1A Function cAMP (Emax); for IC50: cells marked IC50 (antagonist), read-out: 5-HT1A Function cAMP IC50
# T3 sequence (P08908 1-422): T2 sequence (P08908 1-422)
# 5-HT1A receptor [3] = target: T3, 5-HT1A receptor; experiment: 5-HT1A receptor affinity: displacement of [3H] 8-OH-DPAT; assay type: binding; parameters: expressed in transfected cells; conditions: displacement of [3H] 8-OH-DPAT; CHO cells stably transfected with human 5-HT1A receptors; read-out: 5-HT1A Receptor Affinity Ki
# [4] = maximum stimulatory effect, in brackets after EC50, read-out: 5-HT1A Function GTPγS (Emax)
# [5] = maximum inhibitory effect, in brackets after IC50, read-out: 5-HT1A Function GTPγS (Imax)
# [6] = maximum inhibitory effect, in brackets after IC50
# T1 sequence (P31652 whole entry): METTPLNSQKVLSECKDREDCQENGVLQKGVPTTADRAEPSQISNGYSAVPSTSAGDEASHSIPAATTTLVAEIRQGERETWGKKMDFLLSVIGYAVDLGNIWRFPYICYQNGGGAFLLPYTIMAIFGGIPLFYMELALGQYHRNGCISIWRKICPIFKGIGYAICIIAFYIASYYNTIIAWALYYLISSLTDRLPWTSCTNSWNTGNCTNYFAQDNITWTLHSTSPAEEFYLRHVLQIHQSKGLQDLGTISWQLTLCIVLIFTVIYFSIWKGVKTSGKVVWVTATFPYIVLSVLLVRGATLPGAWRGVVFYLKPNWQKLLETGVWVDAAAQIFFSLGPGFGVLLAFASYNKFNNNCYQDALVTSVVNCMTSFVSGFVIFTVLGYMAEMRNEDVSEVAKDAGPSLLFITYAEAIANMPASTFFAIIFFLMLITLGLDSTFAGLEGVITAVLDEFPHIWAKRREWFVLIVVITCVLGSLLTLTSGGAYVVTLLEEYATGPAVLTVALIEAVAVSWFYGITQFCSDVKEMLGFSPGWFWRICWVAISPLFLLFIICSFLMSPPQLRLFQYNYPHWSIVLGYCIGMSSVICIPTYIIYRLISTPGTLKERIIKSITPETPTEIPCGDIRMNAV
Compound,Ki (serotonin transporter) [nM],EC50 [1] [nM],"Emax [1, 4] [%]",EC50 (5-HT1A receptor [2]) [nM],Emax (5-HT1A receptor [2]) [%],Ki (5-HT1A receptor [3]) [nM],IC50 [1] [nM],"Emax [1, 5] [%]",IC50 (5-HT1A receptor [2]) [nM],5-HT1A Function cAMP (Emax) (5-HT1A receptor [2]) [%],"5-HT1A Function GTPγS (Imax) [1, 6] [%]"
"CCCN(CCCc1c[nH]c2c(Cl)cccc12)C1COc2c(F)ccc(C(N)=O)c2C1 (stereo not drawn) [Compound 113, 3-[[3-(7-chloro-1H-indol-3-yl)propyl](propyl)amino]-8-fluorochromane-5-carboxamide]",51,87.2,56,16,91,2.02,,,,,
"N#Cc1ccc2[nH]cc(CCCN(CC3CC3)[C@H]3COc4c(F)ccc(C(N)=O)c4C3)c2c1 [Compound 98b, (3R)-3-[[3-(5-cyano-1H-indol-3-yl)propyl](cyclopropylmethyl)amino]-8-fluorochromane-5-carboxamide]",5.5,,,,0,6.8,456,99,162,,
"COc1cccc2c1CC(N(CCCc1c[nH]c3ccc(F)cc13)C(C)C)CO2 (stereo not drawn) [Compound 40, N-[3-(5-fluoro-1H-indol-3-yl)propyl]-N-isopropyl-N-(5-methoxy-3,4-dihydro-2H-chromen-3-yl)amine]",3.8,,,,0,80.8,3770,46,,,
"CCN(CCCCc1coc2c(OC)cccc12)C1COc2c(F)ccc(C(N)=O)c2C1 (stereo not drawn) [Compound 168, 3-{ethyl[4-(7-methoxy-1-benzofuran-3-yl)butyl]amino}-8-fluorochromane-5-carboxamide]",187,243,76,,0,3.49,,,50.8,,
"CCCCN(CCCc1c[nH]c2ccc(F)cc12)C1COc2c(F)ccc(C(N)=O)c2C1 (stereo not drawn) [Compound 72, 3-{butyl[3-(5-fluoro-1H-indol-3-yl)propyl]amino}-8-fluorochromane-5-carboxamide]",52.5,,,,0,38.8,3250,43,,,
"NC(=O)c1ccc(F)c2c1CC(N(CCCCn1ccc3c(F)cccc31)CC1CC1)CO2 (stereo not drawn) [Compound 203, 3-{(Cyclopropylmethyl)[4-(4-fluoro-1H-indol-1-yl)butyl]amino}-8-fluorochromane-5-carboxamide]",161,,,216,72,9.64,6060,80,,,
"CN(C)C(=O)c1ccc(F)c2c1CC(N(CCCc1c[nH]c3ccc(F)cc13)C1CCC1)CO2 (stereo not drawn) [Compound 73, 3-{cyclobutyl[3-(5-fluoro-1H-indol-3-yl)propyl]amino}-8-fluoro-N,N-dimethylchromane-5-carboxamide]",28.8,,,,0,372,5730,40,155,,
"NC(=O)c1cccc2c1C[C@H](NCCCc1c[nH]c3ccc(F)cc13)CO2 [Compound 133a, (3S)-3-{[3-(5-fluoro-1H-indol-3-yl)propyl]amino}chromane-5-carboxamide]",28.5,5000,60,128,53,51.8,,,,,
"COC(=O)c1cccc2c1CC(NCCCc1c[nH]c3c(F)cc(F)cc13)CO2 (stereo not drawn) [Compound 135, Methyl 3-{[3-(5,7-difluoro-1H-indol-3-yl)propyl]amino}chromane-5-carboxylate]",58,441,100,274,98,19.9,,,,,
"CCCN(CCCc1c[nH]c2c(F)cc(F)cc12)C1COc2c(C(N)=O)ccc(F)c2C1 (stereo not drawn) [Compound 129, 3-[[3-(5,7-difluoro-1H-indol-3-yl)propyl](propyl)amino]-5-fluorochromane-8-carboxamide]",6.8,9330,100,707,75.5,170,,,,,
"NC(=O)c1ccc(F)c2c1C[C@@H](N(CC1CC1)CC1CCc3[nH]c4ccc(F)cc4c3C1)CO2 (single isomer, unassigned; (-)) [Compound 178a]",347,,,,0,117,8400,100,1260,,
"CCCN(CCCc1coc2ccccc12)C1COc2c(F)ccc(C(N)=O)c2C1 (stereo not drawn) [Compound 20, 3-[[3-(1-benzofuran-3-yl)propyl](propyl)amino]-8-fluorochromane-5-carboxamide]",575,35.7,84,62.2,88,0.37,,,,,
"CCCN(C(C)CCc1c[nH]c2ccc(C#N)cc12)C1COc2c(F)ccc(C(N)=O)c2C1 (single isomer, unassigned) [Compound 13b, 3-[[3-(5-cyano-1H-indol-3-yl)-1-methylpropyl](propyl)amino]-8-fluoro-3,4-dihydro-2H-chromene-5-carboxamide]",37,1470,56.5,139,,152,,,,68,
"CCN(CCCCc1c[nH]c2ccc(F)cc12)C1COc2c(F)ccc(C(N)=O)c2C1 (stereo not drawn) [Compound 80, 3-{ethyl[4-(5-fluoro-1H-indol-3-yl)butyl]amino}-8-fluorochromane-5-carboxamide]",0.15,,,,0,312,1000,100,1370,,
"CCN(CCCc1c[nH]c2ccc(F)cc12)C1COc2c(F)ccc(C(N)=O)c2C1 (single isomer, unassigned; (+)) [Compound 3b, (+)-3-{ethyl[3-(5-fluoro-1H-indol-3-yl)propyl]amino}-8-fluoro-3,4-dihydro-2H-chromene-5-carboxamide]",4.5,,,31.4,,15.5,665,,,90.5,35.8
"CNC(=O)c1ccc(F)c2c1C[C@H](N(CCCCc1c[nH]c3ccc(F)cc13)C1CCC1)CO2 [Compound 145a, (3S)-3-{cyclobutyl[4-(5-fluoro-1H-indol-3-yl)butyl]amino}-8-fluoro-N-methylchromane-5-carboxamide]",16.1,,,,0,288,5470,100,668,,
"NC(=O)c1ccc(F)c2c1CC(N(CCCc1c[nH]c3c(F)cc(F)cc13)C1CCC1)CO2 (single isomer, unassigned; (+)) [Compound 9b, (+)-3-{cyclobutyl[3-(5,7-difluoro-1H-indol-3-yl)propyl]amino}-8-fluorochromane-5-carboxamide]",12.2,,,,,68.9,6000,,197,0,74
"CCN(CCCCn1ccc2cccc(F)c21)C1COc2c(F)ccc(C(N)=O)c2C1 (stereo not drawn) [Compound 189, 3-{Ethyl[4-(7-fluoro-1H-indol-1-yl)butyl]amino}-8-fluorochromane-5-carboxamide]",27.1,,,286,77.5,37.4,233,100,,,
"CCN(CCCCc1c[nH]c2ccc(F)cc12)C1COc2c(C(N)=O)ccc(F)c2C1 (stereo not drawn) [Compound 127, 3-{ethyl[4-(5-fluoro-1H-indol-3-yl)butyl]amino}-5-fluorochromane-8-carboxamide]",9.9,1290,50,781,81.5,326,,,,,
"CCCN(CCCc1c[nH]c2ccc(Cl)cc12)C1COc2c(F)ccc(C(N)=O)c2C1 (stereo not drawn) [Compound 116, 3-[[3-(5-chloro-1H-indol-3-yl)propyl](propyl)amino]-8-fluorochromane-5-carboxamide]",151,61.2,50,7.82,80,1.45,843,45,,,
"COc1cccc2c1CC(N(CCCc1c[nH]c3ccc(F)cc13)C1CCCC1)CO2 (stereo not drawn) [Compound 39, N-cyclopentyl-N-[3-(5-fluoro-1H-indol-3-yl)propyl]-N-(5-methoxy-3,4-dihydro-2H-chromen-3-yl)amine]",69,5840,100,108,70.5,36.2,,,,,
"CC(C)NC(=O)c1ccc(F)c2c1CC(N(CCCc1c[nH]c3ccc(F)cc13)C1CCC1)CO2 (stereo not drawn) [Compound 63, 3-{cyclobutyl[3-(5-fluoro-1H-indol-3-yl)propyl]amino}-8-fluoro-N-isopropylchromane-5-carboxamide]",3.56,,,,0,46.1,2170,76,449,,
